The target in data set [1] is T1, human TRPV1 (Homo sapiens (Human), UniProt Q8NER1). Nature of the data set: Human TRPV1 heat-based assay (hHeat-CHO). The data set is classed as cell-based. The note with it: hTRPV1/CHO cells, temperature ramp 25° C. to 45° C.; mean ± SEM (number of trials); read-out: TRPV1 IC50 Potency, Human Heat CHO (hHeat-CHO). As to the method:
Human TRPV1 Heat-Based Assay:
CHO cells stably expressing human TRPV1 (hTRPV1) were used. Functional assessment of heat-induced activation of hTRPV1 was carried out in a cell-based Ca^2+ flux assay using ABI7500 Fast Real-Time PCR System as described in Reubish et al., “Functional assessment of temperature-gated ion-channel activity using a real-time PCR machine,” www.BioTechniques.com 47(3):iii-ix (2009), which is hereby incorporated by reference. Briefly, hTRPV1/CHO cells were cultured in growth media in a tissue culture dish at 37° C. in a CO2 incubator. On the day of the assay, culture media were removed and the cells were then detached using 0.05% trypsin at 37° C. with 5% CO2, for 90 s. The detached cells were centrifuged (1000 rpm, 4 min) to remove trypsin-containing supernatant and resuspended in assay buffer (115 mM NaCl, 5.4 mM KCl, 0.8 mM MgCl2.6H2O, 1.8 mM CaCl2.2H2O, 13.8 mM D-glucose, and 20 mM HEPES). Then, the cells were loaded with 5 μM Fluo-4, a Ca^2+ reporter dye, in the presence of 2.5 mM probenecid at 37° C. with 5% CO2, for 45 min. Thereafter, the cells were washed twice with measuring buffer (assay buffer supplemented with 0.1% BSA and 3.2 mM CaCl2) then transferred to a Fast 96-well Reaction Plate (0.1 mL) (Part no. 4346907, MICROAMP, Applied Biosystems, Foster City, Calif.). The cell density was 100,000 cells/24 μL/well. A solution of the compound under test (6 μL/well) was added into each well of the 96-well plate. Thus, the reaction volume per well was 30 μL.
The plates were then placed inside an ABI7500 Fast Real-Time PCR instrument (Applied Biosystems) to read fluorescence at different temperatures using 7500 software, version 2.0.2 (Applied Biosystems). The initial temperature was set at 25° C. for 1 min. followed by a temperature ramp to 45° C. in 100 s to deliver heat to cells. [Ca^2+]i response of hTRPV1/CHO cells to heat was determined as: [fluorescence read at 45° C.−fluorescence read at 25° C.].
Compound concentration response curves and IC50 values were analyzed using GraphPad Prism 4 software (GraphPad Software, La Jolla, Calif.).
(§1) The IC50 data provided in Table 10 are shown as mean±standard error of the mean; the number of trials conducted for each assay is shown in parentheses except for only a single trial where no number of trials is shown in parentheses.

Data set [2] concerns the target T1, human TRPV1. Nature of the data set: pH-based assay, Protocol 2 (hpH-CHO). As to conditions: read-out: TRPV1 IC50 Potency, Human pH CHO (hpH-CHO). The data set is classed as cell-based. As to the method:
(§2) For Protocol 2, a Chinese Hamster Ovary cell line (CHO) that has been engineered to constitutively express human recombinant TRPV1 was used (TRPV1/CHO cells). The TRPV1/CHO cell line was generated as described below.
TRPV1/CHO cells were seeded in the 96-well clear-bottom black-wall plate (Nunc) at densities of 1-2×10^4 cells/well and grown in 100 μL of culture medium (alpha-MEM supplemented with 10% FBS, 20 mM HEPES, 1 mg/mL geneticin and 1% antibiotic-antimycotic mixed stock solution) for 1-2 days before the experiment.
For the first half of a 96-well plate one agonist solution was used; for the second half the other agonist solution was used. The agonist solutions were obtained by diluting sulfuric acid (1M H2SO4) with measuring buffer. The concentrations for the two agonist solutions were determined as described above in Section 2 of Protocol 2.
The sulfuric acid concentrations between the two agonist solutions differed by 0.5 mM. […] After 1:4 dilution of the agonist solutions, the final sulfuric acid concentration was 3.2 mM and 3.3 mM, respectively. The resulting pH value for the pH assay was 5.0 to 5.1.
Test compounds were dissolved in DMSO to yield 1 mM stock solutions. […] The thereby-obtained solutions were further diluted in measuring buffer (1:100) as 10× stock serial dilutions with a DMSO concentration of 1%. 10 μL of a 10× stock was added into each well of an “antagonist plate” (see step 3.3.(4) below).
Steps (1) and (2) of this Assay were the same as steps 2.2.(1) and 2.2.(2), respectively, of Protocol 2.
(3) The cells were washed twice with 150 μL of measuring buffer (mentioned in step 2.2.(3) of Protocol 2, no probenecid). The wells were subsequently refilled with 70 μL of measuring buffer.
(4) Either 10 μL of measuring buffer or 10 μL of 10× stock serial dilution of test compound (described in step 3.2. above) were applied to each well. Usually, only one test compound was tested per 96-well plate. The number of replicates per 96-well plate for a particular antagonist at a particular concentration was 2×7 since, as described for the “agonist plate,” two different sulfuric acid concentrations were used per 96-well plate and seven lanes (A-C, E-H) per 96-well plate were used (N=2×7).
(6) Fura-2 fluorescent intensity was monitored as described in step 2.2.(5) above. After 16 time points of baseline detection, 20 μL of agonist solution (measuring buffer titrated with H2SO4 to yield a pH in the range of from about 5.0 to about 5.1 when mixed 1:4 with the measuring buffer containing test compound) was added to each well (final volume 100 μL/well).
Steps (7) and (8) were as described in steps 2.2.(6) and 2.2.(7) above, respectively.
as §1

Data set [3] concerns the target T1, human TRPV1. The data set can be described thus: Capsaicin-based assay, Protocol 2 (hCAP-CHO). The class given is cell-based. The method, then: as §2
One day prior to assay, TRPV1/CHO cells were seeded in 96-well clear-bottom black plates (20,000 cells/well) in growth media. On the day of the experiment, the cells were washed with 0.2 mL 1× Hank's Balanced Salt Solution (Life Technologies) containing 1.6 mM CaCl2 and 20 mM HEPES, pH 7.4 (“wash buffer”). Subsequently, the cells were loaded by incubation in 0.1 mL of wash buffer containing Fluo-4 at 3 μM final concentration. After 1 hour, the cells were washed twice with 0.2 mL wash buffer and resuspended in 0.1 mL wash buffer. The plates were then transferred to a Fluorescence Imaging Plate Reader (Molecular Devices). Fluorescence intensity was monitored for 15 seconds to establish a baseline. Subsequently, test compounds diluted in assay buffer (lx Hank's Balanced Salt Solution containing 1 mM CaCl2 and 20 mM HEPES, pH 7.4) containing 1% DMSO were added to the cell plate and fluorescence was monitored for 2 minutes. […] Human TRPV1 was then activated by the addition of 50 μL capsaicin (100 nM final concentration) and plates incubated for an additional 3 min. Data were collected over the entire time course and analyzed using Excel and the curve-fitting formula GraphPad Prism.
as §1

Data set [4] is described as follows: In vivo assay of body temperature increase. Also on record: species or system rat. The note with it: rats, oral, 1 mg/mL at 10 mL/kg once; greatest ΔTb versus control at 0.5, 1 or 2 hrs after administration; rectal temperature. The text has this:
Selection of rats (Crl/SD rats, 7 weeks, male) was based on rectal body temperature measured during the morning of the day of dosing as described below. In addition, to minimize spontaneous, stress-induced increases in body temperature, rats were acclimated in advance to both the rectal measurement procedure and to being handled and dosed. All lodging and testing took place in animal care laboratories with constant room temperature and humidity. The rats were free to move and ingest food and water throughout. Each rat was coded with a colored line on the tail, housed in a separate cage, and permitted the normal range of movement. Immediately before each body temperature measurement, a rat was transferred to a measurement cage. To reduce stress which could influence its body temperature, each rat was covered with towels during the measurement. A thermistor probe was then carefully inserted into the rectum of each rat and left in place until the temperature reading on the digital display had stabilized; this value was recorded.
On the day before dosing, rectal body temperature was measured at 9:00, 10:00, 11:00, 12:30, 13:30, 14:30, and 15:30 o'clock to familiarize the rats with the measurement procedure prior to administration of the test or control treatments. The rats were also dosed by oral gavage without vehicle at 12:30 o'clock to acclimate and familiarize them with the handling and dosing procedure.
On the day of dosing, only rats with rectal body temperatures within the range of from 37.0° C. to 37.7° C. were selected for study. Rectal body temperatures were measured at 9:00, 10:00, and 11:00 o'clock. […] Rectal body temperatures of the selected rats were measured again at 12:30 o'clock and any rat with a rectal body temperature of 38.0° C. or greater was also excluded from the study.
Following assignment to either a test or control group, a test compound or a control was administered to the rats. […] Rectal body temperatures were measured at the following time points: 0.5, 1, and 2 hrs after administration. […]

Where [5] appears, read: TRPV1/CHO cells, pH 5.0-5.1, mean ± SEM (number of trials).
[6] abbreviates: TRPV1/CHO cells, 100 nM capsaicin, mean ± SEM (number of trials), read-out: TRPV1 IC50 Potency, Human Capsaicin CHO (hCAP-CHO).
[7] abbreviates: prepared and evaluated according to the methods described in WO2005/030766.

The values below come from patent US9394293B2, “TRPV1 antagonists including dihydroxy substituent and uses thereof” (Purdue Pharma L.P., priority 2011, dated 2016).

As usually defined, the IC50 is the concentration that inhibits the measured activity by half.

T1 sequence (Q8NER1 whole entry, looked up): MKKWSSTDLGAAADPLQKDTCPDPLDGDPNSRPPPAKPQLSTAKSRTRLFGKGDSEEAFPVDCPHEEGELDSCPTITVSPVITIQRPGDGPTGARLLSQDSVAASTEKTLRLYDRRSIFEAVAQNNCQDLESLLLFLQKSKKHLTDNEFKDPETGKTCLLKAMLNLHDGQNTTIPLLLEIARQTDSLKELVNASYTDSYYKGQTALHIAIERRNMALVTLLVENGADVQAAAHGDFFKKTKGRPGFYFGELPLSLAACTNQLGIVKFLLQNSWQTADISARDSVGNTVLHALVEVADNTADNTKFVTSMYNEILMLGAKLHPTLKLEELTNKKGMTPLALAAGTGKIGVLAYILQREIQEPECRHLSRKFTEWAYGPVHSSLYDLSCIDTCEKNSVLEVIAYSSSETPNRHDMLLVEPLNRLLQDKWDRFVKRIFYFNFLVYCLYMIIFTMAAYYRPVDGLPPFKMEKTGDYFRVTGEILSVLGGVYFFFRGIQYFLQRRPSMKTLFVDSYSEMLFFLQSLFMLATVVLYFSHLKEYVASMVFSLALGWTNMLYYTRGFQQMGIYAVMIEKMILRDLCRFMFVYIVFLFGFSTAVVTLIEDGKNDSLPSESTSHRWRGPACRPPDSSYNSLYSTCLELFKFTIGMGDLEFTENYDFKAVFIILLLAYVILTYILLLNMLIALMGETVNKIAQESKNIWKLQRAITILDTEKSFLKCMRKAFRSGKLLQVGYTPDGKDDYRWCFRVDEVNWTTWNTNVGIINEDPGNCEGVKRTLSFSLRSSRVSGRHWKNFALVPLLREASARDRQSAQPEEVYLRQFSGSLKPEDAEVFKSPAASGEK

Take `O=C(Nc1nc2ccccc2s1)c1ccc(-c2ncc(C[C@@H](O)CO)cc2F)cc1` [Compound G155a, (R)—N-(benzo[d]thiazol-2-yl)-4-[5-(2,3-dihydroxypropyl)-3-fluoropyridin-2-yl]benzamide]: the IC50 in data set [1] is 307 ± 10 nM; in data set [2] (setting [5]) it was 44.3 ± 6.2 nM; in data set [3] (setting [6]), 31.9 ± 7.6 nM.
For `Cc1ccc2nc(NC(=O)c3ccc(-c4ncc(C[C@@H](O)CO)cc4F)cc3)sc2c1` [Compound G159a, (R)-4-[5-(2,3-dihydroxypropyl)-3-fluoropyridin-2-yl]-N-(6-methylbenzo[d]thiazol-2-yl)benzamide] the same measures were 879 ± 13 nM, 13.7 ± 0.2 nM and 29.6 ± 7.9 nM.
For the molecule `Cc1cccnc1-c1ccc(C(=O)Nc2nc3ccc(Cl)cc3s2)cc1` [A, reference compound], the IC50 in data set [2] (setting [7]) and in data set [3] was more than 25000 nM each time.
Turning to `O=C(Nc1nc2ccccc2s1)c1ccc(-c2ncc(C[C@H](O)CO)cc2F)cc1` [Compound G155b, (S)—N-(benzo[d]thiazol-2-yl)-4-[5-(2,3-dihydroxypropyl)-3-fluoropyridin-2-yl]benzamide], the figures for the IC50 in data set [1], in data set [2] (setting [5]) and in data set [3] (setting [6]) were 580 nM, 45 ± 3.3 nM and 116 ± 9.6 nM, respectively.
With `C[C@H](O)[C@@H](O)c1cnc(N2CCN(C(=O)Nc3nc4ccc(F)cc4s3)[C@@H](C)C2)c(F)c1` [BB], in data set [4], the “Body Temperature Increase ΔTb” value turned out to be 0.5 °C.
As to `O=C(Nc1nc2ccc(Cl)cc2s1)c1ccc(-c2ncc(C[C@@H](O)CO)cc2F)cc1` [Compound G156a, (R)—N-(6-chlorobenzo[d]thiazol-2-yl)-4-[5-(2,3-dihydroxypropyl)-3-fluoropyridin-2-yl]benzamide], the IC50 is more than 10000 nM in data set [1], 18.8 ± 1.8 nM in data set [2] (setting [5]) and 28.7 ± 6.8 nM in data set [3] (setting [6]).
Take `Cc1cc2nc(NC(=O)c3ccc(-c4ncc(C[C@@H](O)CO)cc4F)cc3)sc2cc1C` [Compound G215a, (R)-4-[5-(2,3-dihydroxypropyl)-3-fluoropyridin-2-yl]-N-(5,6-dimethylbenzo[d]thiazol-2-yl)benzamide]: the values for the IC50 in data set [2] (setting [5]) and in data set [3] (setting [6]) were 105 ± 14 nM and 219 ± 58 nM, respectively.
Consider `C[C@H](O)[C@@H](O)c1cnc(N2CCN(C(=O)Nc3nc4ccc(F)cc4s3)[C@H](C)C2)c(Cl)c1` [BA], for which the “Body Temperature Increase ΔTb” value in data set [4] was 0.9 °C.
With `Cc1cccnc1-c1ccc(C(=O)Nc2nc3ccc(F)cc3s2)cc1` [Compound B, reference compound], the IC50 in data set [2] (setting [7]) was more than 25000 nM; in data set [3], 1140 ± 270 nM.
On to `C[C@H](O)[C@@H](O)c1cnc(N2CCN(C(=O)Nc3nc4ccc(F)cc4s3)[C@H](C)C2)c(F)c1` [BC], for which the “Body Temperature Increase ΔTb” value in data set [4] is 0.7 °C.
`O=C(Nc1nc2ccc(F)cc2s1)c1ccc(-c2ncc(C[C@@H](O)CO)cc2F)cc1` [Compound G158a, (R)-4-[5-(2,3-dihydroxypropyl)-3-fluoropyridin-2-yl]-N-(6-fluorobenzo[d]thiazol-2-yl)benzamide]: the IC50 amounted to 598 ± 296 nM in data set [1], 23.1 ± 3.1 nM in data set [2] (setting [5]) and 77 ± 29 nM in data set [3] (setting [6]).
